Tests used:
E. coli = E. coli growth inhibition (results not shown); assay type: cell-based
[1] = test system: P. aeruginosa strain PAO1; assay: Microplate based planktonic growth assay of P. aeruginosa; assay type: cell-based, Pseudomonas aeruginosa; details: for reduction of specific growth rate compared to furanone-free control: planktonic growth
Experimental: The antimicrobial activities of furanones on the planktonic growth of P. aeruginosa strain PAO1 was examined using a microplate based growth assay. An overnight culture of the strain grown in LB medium at 30° C. was used to inoculate M63 minimal medium supplemented with furanones at 0, 30 or 60 μg/mL to an optical density at 600 nm (OD600) of 0.05 in 96-well plates. The plates were then incubated at 30° C. with shaking at 200 rpm. The reading of OD600 was measured every 60 minutes for six hours using a microplate reader (ELx808, BioTek Instruments). Six replicates were tested for every sample. The synthesis of the brominated furanones, the structures of which are shown in FIGS. 1A and 1B, was according to Example 1.

[2] = test system: P. aeruginosa strain PAO1 biofilm formation; assay: Microplate-based biofilm assay (crystal violet, OD540) of P. aeruginosa; assay type: cell-based, Pseudomonas aeruginosa; details: 24 hours
Experimental: A microplate-based biofilm assay was used to further investigate whether furanones inhibit biofilm formation of P. aeruginosa strain PAO1. For this biofilm assay the strain was grown at 30° C. without shaking in M63 minimal medium containing 13.6 g/L KH2PO4, 2 g/L (NH4)2SO4, 0.5 mg/L FeSO4, 0.12 g/L MgSO4, 5 g/L vitamin free casamino acids and 5 g/L glucose (pH 7.0). The synthesis of the brominated furanones, the structures of which are shown in FIGS. 1A and 1B, was according to Example 1.
The overnight culture of P. aeruginosa was used to inoculate fresh M63 medium supplemented with furanones (0, 30 or 60 μg/mL) to an OD600 of 0.05 in 96-well plates. Four replicates were tested for each condition. The plates were incubated at 30° C. without shaking for 24 hours. The biofilm mass was quantified by following the protocol described previously. Briefly, the planktonic cells were carefully removed by pipetting and the plates with biofilms were washed three times with deionized H2O and dried by gently patting on a piece of paper towel. To quantify biofilms, the plates were stained with 0.1% crystal violet and incubated for 20 minutes at room temperature. The plates were then washed three times with deionized H2O to remove extra dyes. An OD540 was measured to quantify the biofilm on the bottom of each well.

[3] = test system: Gloeophyllum trabeum strain GT598; assay: Fungal growth on MEA plates with furanone; assay type: cell-based; parameters: key to growth on plate, GT598: −: No growth was observed; +: normal growth was seen; details: for growth on plate, GT598: 60 μg/mL, 7 days at 30° C.; for growth inhibition test, inhibitory concentration, GT598: tested at 1, 5, 30, 60 μg/mL, 7 days
Experimental: (§1) This Example examines the effect of brominated furanones on the growth of fungi associated with damage to building material. Six fungal strains were the subject of these experiments; Gloeophyllum trabeum (strains GT598 and GT599), Chaetomium globosum (wildtype strain and CG572), and Trametes versicolor (strains TV7B2-59 and TV57MAD277). The species were developed on 2% Malt-Extract Agar (MEA) plates and stored inverted at 4° C. The stocks were refreshed by streaking new plates every two months.
(§2) The brominated and non-brominated furanones were added to MAE agar plates at different concentrations. The brominated furanones were dissolved in either ethanol (“EtOH”) or methanol (“MeOH”) as stock solutions, as shown in Table 5. The non-brominated furanones were purchased from Sigma (St. Louis, Mo.). The furanone stocks were stored at 4° C.
(§3) MAE agar plates containing the same amounts of ethanol/methanol were also prepared as negative controls to eliminate any solvent effects. The plates were prepared using either 90 mm or 60 mm petri dishes and were stored inverted at 4° C. until use.
(§4) Different concentrations of furanones were studied to compare their antifungal activities. The plates were inoculated with the six fungal strains using a platinum loop and were incubated upside down at 30° C. for 7 days to monitor the growth. The initial screening was performed using a single 60 μg/mL furanone concentration.

[4] = test system: Gloeophyllum trabeum strain GT599; assay: Fungal growth on MEA plates with furanone; assay type: cell-based; parameters: key to growth on plate, GT599: −: No growth was observed; +: normal growth was seen; details: for growth on plate, GT599: 60 μg/mL, 7 days at 30° C.; for growth inhibition test, inhibitory concentration, GT599: tested at 1, 5, 30, 60 μg/mL, 7 days
Experimental: as §1, §2, §3, §4

[5] = test system: Chaetomium globosum wildtype strain (CG); assay: Fungal growth on MEA plates with furanone; assay type: cell-based; parameters: key to growth on plate, CG: −: No growth was observed; +: normal growth was seen; details: for growth on plate, CG: 60 μg/mL, 7 days at 30° C.; for growth inhibition test, inhibitory concentration, CG: tested at 1, 5, 30, 60 μg/mL, 7 days
Experimental: as §1, §2, §3, §4

[6] = test system: Chaetomium globosum CG572; assay: Fungal growth on MEA plates with furanone; assay type: cell-based; parameters: key to growth on plate, CG572: −: No growth was observed; +: normal growth was seen; details: for growth on plate, CG572: 60 μg/mL, 7 days at 30° C.; for growth inhibition test, inhibitory concentration, CG572: tested at 1, 5, 30, 60 μg/mL, 7 days
Experimental: as §1, §2, §3, §4

[7] = test system: Trametes versicolor strain TV7B2-59; assay: Fungal growth on MEA plates with furanone; assay type: cell-based; parameters: key to growth on plate, TV7B2-59: −: No growth was observed; +: normal growth was seen; details: for growth on plate, TV7B2-59: 60 μg/mL, 7 days at 30° C.; for growth inhibition test, inhibitory concentration, TV7B2-59: tested at 1, 5, 30, 60 μg/mL, 7 days
Experimental: as §1, §2, §3, §4

[8] = test system: Trametes versicolor strain TV57MAD277; assay: Fungal growth on MEA plates with furanone; assay type: cell-based; parameters: key to growth on plate, TV57MAD277: −: No growth was observed; +: normal growth was seen; details: for growth on plate, TV57MAD277: 60 μg/mL, 7 days at 30° C.; for growth inhibition test, inhibitory concentration, TV57MAD277: tested at 1, 5, 30, 60 μg/mL, 7 days
Experimental: as §1, §2, §3, §4

[9] = test system: six fungal strains (Gloeophyllum trabeum, Chaetomium globosum, Trametes versicolor); assay: Fungal growth on MEA plates with furanone, statements for all six strains; assay type: cell-based; details: for growth inhibition of the six fungal strains, comparison: 1 to 60 μg/mL
Experimental: as §1, §2, §3, §4

[10] = test system: Candida albicans strain SC5341; assay: C. albicans growth curves in SD medium with furanones (96-well plates, OD600); assay type: cell-based; details: tested 2.5, 5, 10, 20 μg/mL
Experimental: To evaluate the effects of furanones on fungal growth, C. albicans was grown in a synthetic dextrose (“SD”) medium supplemented with 0, 2.5, 5, 10, or 20 μg/mL of one of eight different brominated furanones and […] furanones (BF1, BF8, BF9, BF11, BF12, BF14, NF1, NF2, or NF3).
The Candida albicans strain SC5341 used in this study was provided by Dr. Sean Palecek from the University of Wisconsin-Madison. C. albicans was routinely grown overnight at 30° C. and shaken at 200 rpm in a SD medium containing 0.67% (wt/vol) yeast nitrogen base without amino acids and 2% (wt/vol) dextrose, which was buffered with 0.165 M morpholinepropanesulfonic acid (MOPS, Sigma), and pH-adjusted to 7.0 with solid NaOH. The overnight culture was then sub-cultured in 25 mL of fresh SD medium to an initial optical density at 600 nm (OD600) of 0.005 and grown till the OD600 reached 1.0. The OD600 values were measured using a Spectronic GENESYS 5 UV-Vis spectrophotometer (Thermo Fisher Scientific®, Waltham, Mass.). This culture was used to inoculate sterile 96-well plates (Costar® No. 9017, Corning®, Corning, N.Y.) containing SD medium supplemented with furanones at different concentrations (0, 2.5, 5, 10, 20 μg/mL) to an OD600 of 0.06 in at least duplicates. The BF1, 8, 9, 11, 12, 14 and NF1-3 compounds were dissolved in ethanol at a concentration of 20 mg/mL. The BF10 compound was dissolved in methanol at a concentration of 20 mg/mL. The amounts of methanol and ethanol were adjusted to be the same for each sample to eliminate the effects of solvents. The samples were then incubated at 30° C. with shaking at 200 rpm, and the OD600 in each well was measured at 0, 4, 7, 17, and 42 hours after inoculation, using an ELx808™ Absorbance Microplate Reader (BioTek Instruments® Inc., Winooski, Vt.).

Row | Structure (SMILES) | inhibition of biofilm formation ([2]; 30 μg/mL) | inhibition of biofilm formation ([2]; 60 μg/mL) | growth inhibition test, inhibitory concentration, GT598 [3] | growth inhibition test, inhibitory concentration, GT599 [4] | growth inhibition test, inhibitory concentration, CG [5] | growth inhibition test, inhibitory concentration, CG572 [6] | growth inhibition test, inhibitory concentration, TV7B2-59 [7] | growth inhibition test, inhibitory concentration, TV57MAD277 [8] | inhibitory effect on planktonic growth ([1]; 30 μg/mL) | further results
1 | O=C1OC(=C(Br)Br)C=C1CBr [BF11, 3-(bromomethyl)-5-(dibromomethylene)furan-2-one] | significantly inhibited | significantly inhibited | 1 µg/mL | 5 µg/mL | 5 µg/mL | 5 µg/mL | 5 µg/mL | 5 µg/mL |  | growth inhibition of E. coli (E. coli): significantly inhibit; reduction of specific growth rate compared to furanone-free control ([1]; 30 μg/mL): 27.3%; reduction of specific growth rate compared to furanone-free control ([1]; 60 μg/mL): 65.0%; growth on plate, GT598 [3]: −; growth on plate, GT599 [4]: −; growth on plate, CG [5]: −; growth on plate, CG572 [6]: −; growth on plate, TV7B2-59 [7]: −; growth on plate, TV57MAD277 [8]: −; growth inhibition of the six fungal strains, comparison [9]: most significant inhibition
2 | O=C1O/C(=C\Br)C(Br)=C1CBr [BF12, 4-bromo-3-(bromomethyl)-5Z-(bromomethylene)furan-2-one] | significantly inhibited | significantly inhibited | 1 µg/mL | 5 µg/mL | 1 µg/mL | 5 µg/mL | 5 µg/mL | 5 µg/mL |  | growth inhibition of E. coli (E. coli): significantly inhibit; reduction of specific growth rate compared to furanone-free control ([1]; 30 μg/mL): 91.2%; reduction of specific growth rate compared to furanone-free control ([1]; 60 μg/mL): 100%; growth inhibition of the six fungal strains, comparison [9]: most significant inhibition
3 | CC1=C(Br)C(C(Br)Br)OC1=O (stereo not drawn) [BF13, 4-bromo-5-(dibromomethyl)-3-methylfuran-2(5Br)-one] | significantly inhibited | significantly inhibited | 60 µg/mL | 60 µg/mL | 60 µg/mL | 60 µg/mL | 60 µg/mL | 5 µg/mL | did not exhibit significant inhibitory effects | 
4 | CC1=C(Br)C(C(Br)Br)OC1=O (stereo not drawn) [BF14, 4-bromo-5-(dibromomethyl)-3-methylfuran-2(5H)-one] |  |  |  |  |  |  |  |  | did not exhibit significant inhibitory effects | lowest concentration showing growth inhibition [10]: 20 µg/mL; inhibition of biofilm formation ([2]; 30 and 60 μg/mL): non-inhibitory
5 | O=C1C=C(CBr)C(=O)O1 [BF15, 3-(bromomethyl)-2,5-furandione] |  |  |  |  |  |  |  |  |  | growth on plate, GT598 [3]: −; growth on plate, GT599 [4]: −; growth on plate, CG [5]: −; growth on plate, CG572 [6]: −; growth on plate, TV7B2-59 [7]: −; growth on plate, TV57MAD277 [8]: −
6 | CC1=CC(=O)OC1=O [NF1, Citraconic anhydride; IUPAC: 3-methyl-2,5-furandione, reference compound] |  |  | 60 µg/mL | 60 µg/mL | 60 µg/mL | 60 µg/mL | 60 µg/mL | 60 µg/mL | did not exhibit significant inhibitory effects | 
7 | COC1=CC(=O)OC1 [NF2, 4-Methoxy-2(5H)-furanone; IUPAC: 4-methoxy-2(5H)-furanone, reference compound] |  |  |  |  |  |  |  |  |  | growth inhibition of the six fungal strains ([9]; 60 μg/mL, 7 days): did not show any apparent inhibition
8 | CC1=CC(C)OC1=O (stereo not drawn) [NF3, 3,5-Dimethylfuran-2(5H)-one, reference compound] |  |  |  |  |  |  |  |  | did not exhibit significant inhibitory effects | 
